Assay results: patent US8901071B2, “Compounds and their use” (Novabiotics Limited, priority 2010, dated 2014)
No end group written: not given here.

Assays:
[1] = tested on: P. aeruginosa bacterial biofilms; test: bacterial biofilm assay, Example 2 (optical density at 625 nm; FIGS. 3-4); assay type: cell-based; conditions: biofilm grown 18 hours, 24 hours incubation, 0 to 1 mg/ml, combinations in equal concentration
Method: (§1) P. aeruginosa bacterial biofilms and S. aureus bacterial biofilms were grown in Mueller-Hinton agar in separate 96-well microtitre plates for 18 hours at 37 degrees Celsius. The planktonic cells and medium were then removed and the bacterial biofilms were washed three times with phosphate buffer solution at a pH of around 7. Two-fold dilutions of three different antimicrobial agents in Mueller Hinton broth were then added to the bacterial biofilms. The microtitre plates were incubated at 37 degrees Celsius for 24 hours. The medium was then transferred to a fresh microtitre plate and the optical density of the bacterial biofilm was measured at 625 nm on a microtitre plate reader (BioTek Powerwave, X S, Winooski, USA.
(§2) The antimicrobial agents tested were NP432 alone, a combination of NP432 and NM001 in equal concentration, a combination of NP432 and NP 108 in equal concentration, NP445 alone, a combination of NP445 and NM001 in equal concentration, a combination of NP445 and NP 108 in equal concentration. The antimicrobial agents were tested at concentrations of 0 to 1 mg/ml against P. aeruginosa bacterial biofilms and S. aureus bacterial biofilms.

[2] = tested on: S. aureus bacterial biofilms; test: bacterial biofilm assay, Example 2 (optical density at 625 nm; FIGS. 5-6); assay type: cell-based; conditions: biofilm grown 18 hours, 24 hours incubation, 0 to 1 mg/ml, combinations in equal concentration
Method: as §1, §2

mice = test: lethality of peptide in mice; assay type: in vivo; conditions: dose of around 5 mg/kg

Row | Sequence | antimicrobial effect against P. aeruginosa bacterial biofilms [1] | antimicrobial effect against S. aureus bacterial biofilm [2] | lethality to mice (mice)
1 | KKFPWRLRLRYGRR (sythetic peptide) [NP445] | antimicrobial effect | antimicrobial effect | 
2 | RRRFRFFFRFRRR [NP432, RRRFRFFFRFRRR] |  |  | non-lethal
